Like-named read-outs stand apart in the source and are kept apart here. Marks after values point to notes of the source that are not given here.

Experiment [1] concerns PR20. The experiment can be described thus: DSC thermal stabilisation by inhibitor. The experiment is classed as binding, HIV-1. The following applies: for ΔTm of PR20 smaller than that of PR20^PR-123: DSC, PR20 vs PR20^PR-123.
Experiment [2] deals with PR (pseudo-wild-type mature HIV-1 protease). The following applies: cited from earlier work.
Experiment [3] has as its target PR20. The note with it: read-out: inhibition constant Ki; cited from earlier work.
Experiment [4] deals with PR. The note with it: cited from earlier work.
For experiment [5], the system named is PR20. The following applies: darunavir; cited from earlier work.
Experiment [6] concerns TFR-PR precursor. The following applies: cited from earlier work; for IC50: read-out: IC50 for inhibition of autoprocessing.
In experiment [7] the test system is TFR-PR20 precursor. The note with it: read-out: IC50 for inhibition of autoprocessing; cited from earlier work.

For the molecule `CC(C)CN(C[C@@H](O)[C@H](Cc1ccccc1)NC(=O)O[C@H]1CO[C@H]2OCC[C@H]21)S(=O)(=O)c1ccc(N)cc1` [darunavir], the “ΔTm of PR20 smaller than that of PR20^PR-123” value in experiment [1] was 9–11 °C. For the same molecule, the Ki in experiment [2] (read-out: inhibition constant Ki, darunavir, ref refs and [50]) was not above 0.01 nM; in experiment [3], 41 ± 10 nM. In addition, the results for the “ΔTm (with inhibitor), DSC” value in experiment [4] (darunavir) and in experiment [5] were 22.4 ^c °C and 5.3 ^b °C, respectively. In addition, the “concentration that completely inhibits autoprocessing” value in experiment [6] was 1 to 3 µM. In addition, the IC50 in experiment [6] was 1000 to 2000 nM.
As for `CC(C)(C)NC(=O)[C@@H]1C[C@@H]2CCCC[C@@H]2CN1C[C@@H](O)[C@H](Cc1ccccc1)NC(=O)[C@H](CC(N)=O)NC(=O)c1ccc2ccccc2n1` [saquinavir], in experiment [1], the “ΔTm of PR20 smaller than that of PR20^PR-123” value was 9–11 °C. In addition, the “ΔTm (with inhibitor), DSC” value is 2.9 °C in experiment [1] (PR20, saquinavir, 2fold molar excess of inhibitor over dimer, buffer A) and 19.3 ^d °C in experiment [4] (saquinavir). Further, the Ki in experiment [2] (read-out: inhibition constant Ki, saquinavir) was 0.28 ± 0.02 nM; in experiment [3] it was 930 ± 93 nM. Also, the “concentration that completely inhibits autoprocessing” value in experiment [6] is 1 to 3 µM. Moreover, the figures for the half-maximal inhibitory concentration (IC50) in experiment [6] and in experiment [7] were 1000 to 2000 nM and more than 150000 nM, respectively.

(Values after paper PMC5590646 (Biochemistry, 2015).)
